# Measurements from US20100286200A1, “COMBINATION OF METFORMIN AND AN MTP INHIBITOR” (JANSSEN PHARMACEUTICA NV, priority 2008, published 2010).
# Assays:
# [1] = cited from earlier work
# [2] = test system: subjects with type 2 diabetes mellitus undergoing metformin treatment; assay: Proof-of-concept 12-week double-blind, randomized, placebo-controlled study of the MTP inhibitor in subjects on metformin treatment; type: in vivo, human
# Text: Proof-of-concept study of combinations of metformin and the MTP inhibitor (+)-phenyl-(4-{4-[(4′-trifluoromethyl-biphenyl-2-carbonyl)-amino]-phenyl}-piperidin-1-yl)-acetic acid methyl ester
# Safety and efficacy of the MTP inhibitor (+)-phenyl-(4-{4-[(4′-trifluoromethyl-biphenyl-2-carbonyl)-amino]-phenyl}-piperidin-1-yl)-acetic acid methyl ester in the treatment of subjects with type 2 diabetes mellitus undergoing metformin treatment has been investigated. Three dosing regimens of the MTP inhibitor, 5-10-15 mg bid, were compared to placebo in a double-blind, randomized, parallel-group study design of 12 weeks wherein all subjects were following metformin treatment. All subjects remained on a calorically appropriate, low fat (≦30%) diet, being in accordance with the local practice guidelines for the treatment of type 2 diabetes.
# Subjects randomized into the study had to have type 2 diabetes for at least 3 months and remained on a stable metformin monotherapy for at least 2 months. There were 88, 84, 91 and 89 patients randomized to placebo, 5 mg, 10 mg and 15 mg BID. Mean age was 55 years and there were slightly more males than females randomized into the study (males:females—54%:46%).
# The mean baseline glycosylated hemoglobin (HbA1c) was 7.8±0.8% (mean±SD) and the mean plasma glucose was 9.1±1.80 mmol/L (mean±SD). The majority (68%) of subjects had HbA1c levels≦8%.
# Mean weight at baseline was 94.9 kg and varied between 92.8 kg and 96.7 kg in different treatment groups, while the mean baseline BMI was 32.8 kg/m^2.
# [3] = 5 mg bid, with metformin, week 12
# [4] = 10 mg bid and 15 mg bid, combination with metformin
# [5] = 10 mg bid, with metformin, Week 12
# [6] = 15 mg bid, with metformin, Week 12
smiles,measurement,setting,value
"COC(=O)C(c1ccccc1)N1CCC(c2ccc(NC(=O)c3ccccc3-c3ccc(C(F)(F)F)cc3)cc2)CC1 (single isomer, unassigned; (+)) [(+)-phenyl-(4-{4-[(4′-trifluoromethyl-biphenyl-2-carbonyl)-amino]-phenyl}-piperidin-1-yl)-acetic acid methyl ester]",metabolism in the plasma,[1],rapidly metabolised in the plasma
same,systemic plasma concentrations,[1],very low systemic plasma concentrations
same,mean body weight loss at Week 12,"[2]; 5 mg bid, with metformin",1.71 kg
same,mean body weight loss at Week 12 (percent),"[2]; 5 mg bid, with metformin",1.0%
same,mean percentage change from baseline at week 12 in fasting plasma glucose (FPG),"[2]; 5 mg bid, with metformin",−2.3%
same,"mean decrease in HbA1c (%), change from baseline at Week 12","[2]; 5 mg bid, with metformin, Week 12, baseline HbA1c 7.8±0.8%",−0.46%
same,HbA1c least square mean (mixed model) difference from placebo,[2]; [3],0.19
same,absolute change from baseline in FPG (decrease),[2]; [3],0.37 mmol/L
same,LDL levels (fasting plasma lipids),[2]; [4],Beneficial effects
same,ratio of LDL over HDL (fasting plasma lipids),[2]; [4],Beneficial effects
same,mean body weight loss at Week 12,"[2]; 10 mg bid, with metformin",2.80 kg
same,mean body weight loss at Week 12 (percent),"[2]; 10 mg bid, with metformin",2.9%
same,mean percentage change from baseline at week 12 in fasting plasma glucose (FPG),"[2]; 10 mg bid, with metformin",−6.1%
same,HbA1c least square mean (mixed model) difference from placebo,[2]; [5],0.28
same,absolute change from baseline in FPG (decrease),[2]; [5],0.063 mmol/L
same,"mean decrease in HbA1c (%), change from baseline at Week 12",[2]; [5],−0.55%
same,mean body weight loss at Week 12,"[2]; 15 mg bid, with metformin",3.37 kg
same,mean body weight loss at Week 12 (percent),"[2]; 15 mg bid, with metformin",3.6%
same,mean percentage change from baseline at week 12 in fasting plasma glucose (FPG),"[2]; 15 mg bid, with metformin",−6.0%
same,HbA1c least square mean (mixed model) difference from placebo,[2]; [6],0.28
same,absolute change from baseline in FPG (decrease),[2]; [6],0.63 mmol/L
same,"mean decrease in HbA1c (%), change from baseline at Week 12",[2]; [6],−0.54%
same,change from baseline at Week 12 of HbA1c levels vs. placebo (mixed model analysis),"[2]; all active treatment arms (5, 10, 15 mg bid), with metformin",statistically significant decrease vs. placebo
